Data: ChEMBL document CHEMBL3244157, “Synthesis and antiinflammatory evaluation of substituted isophthalonitriles, trimesonitriles, benzonitriles, and terephthalonitriles” (J Med Chem, 1978)

Legend:
Rattus norvegicus [1] = assay: Antiinflammatory activity in Long Evans rat assessed as reduction of carrageenan-induced pedal edema at 200 mg/kg, po administered 1 hr prior to carrageenan challenge measured after 3 hrs relative to control; format: functional; design: scale not given: the % may be the effect or the level left
[2] = Toxicity in mouse assessed as overt effects; format: organism-based; conditions: in vivo
Rattus norvegicus [3] = assay: Antiinflammatory activity in Long Evans rat assessed as reduction of carrageenan-induced pedal edema at 50 mg/kg, po administered 1 hr prior to carrageenan challenge measured after 3 hrs relative to control; format: functional; design: scale not given: the % may be the effect or the level left
Rattus norvegicus [4] = assay: Antiinflammatory activity in Long Evans rat assessed as reduction of carrageenan-induced pedal edema at 100 mg/kg, po administered 1 hr prior to carrageenan challenge measured after 3 hrs relative to control; format: functional; design: scale not given: the % may be the effect or the level left
Rattus norvegicus [5] = assay: Antiinflammatory activity in Long Evans rat assessed as reduction of carrageenan-induced pedal edema at 150 mg/kg, po administered 1 hr prior to carrageenan challenge measured after 3 hrs relative to control; format: functional; design: scale not given: the % may be the effect or the level left
Rattus norvegicus [6] = assay: Antiinflammatory activity in Long Evans rat assessed as reduction of carrageenan-induced pedal edema at 40 mg/kg, po administered 1 hr prior to carrageenan challenge measured after 3 hrs relative to control; format: functional; design: scale not given: the % may be the effect or the level left
Rattus norvegicus [7] = assay: Antiinflammatory activity in Long Evans rat assessed as reduction of carrageenan-induced pedal edema at 15 mg/kg, po administered 1 hr prior to carrageenan challenge measured after 3 hrs relative to control; format: functional; design: scale not given: the % may be the effect or the level left
Rattus norvegicus [8] = assay: Antiinflammatory activity in Long Evans rat assessed as reduction of carrageenan-induced pedal edema at 25 mg/kg, po administered 1 hr prior to carrageenan challenge measured after 3 hrs relative to control; format: functional; design: scale not given: the % may be the effect or the level left
Rattus norvegicus [9] = assay: Antiinflammatory activity in Long Evans rat assessed as reduction of carrageenan-induced pedal edema at 20 mg/kg, po administered 1 hr prior to carrageenan challenge measured after 3 hrs relative to control; format: functional; design: scale not given: the % may be the effect or the level left

SMILES | Activity (Rattus norvegicus [1]) [%] | LD50 [2] [mg/kg] | also measured
Cc1cccc(C#N)c1 | 20 | > 300 | –
N#Cc1ccc(Cl)cc1 | 30 | > 300 | –
N#Cc1cc(C#N)c(F)cc1F | – | 56 | Activity (Rattus norvegicus [3]): 59%
N#Cc1c(Cl)c(C#N)c(Nc2ccc(N)cc2)c(C#N)c1Cl | – | 133 | Activity (Rattus norvegicus [4]): 14%
N#Cc1c(O)c(Cl)c(Cl)c(C#N)c1Cl | – | 178 | Activity (Rattus norvegicus [5]): 28%
COc1c(Cl)c(Cl)c(C#N)c(Cl)c1C#N | – | 178 | Activity (Rattus norvegicus [4]): 0%
CCCOc1c(Cl)c(Cl)c(C#N)c(Cl)c1C#N | – | 178 | Activity (Rattus norvegicus [4]): 8%
CCCCOc1c(Cl)c(Cl)c(C#N)c(Cl)c1C#N | – | 178 | Activity (Rattus norvegicus [4]): 8%
CCCC(=O)Oc1c(Cl)c(Cl)c(C#N)c(Cl)c1C#N | – | 178 | Activity (Rattus norvegicus [5]): 14%
CC(C)CCC(=O)Oc1c(Cl)c(Cl)c(C#N)c(Cl)c1C#N | – | 56 | Activity (Rattus norvegicus [3]): 0%
CCCCCCCC(=O)Oc1c(Cl)c(Cl)c(C#N)c(Cl)c1C#N | – | 178 | Activity (Rattus norvegicus [5]): 22%
CNC(=O)Oc1c(Cl)c(Cl)c(C#N)c(Cl)c1C#N | – | 178 | Activity (Rattus norvegicus [4]): 20%
CCCCNC(=O)Oc1c(Cl)c(Cl)c(C#N)c(Cl)c1C#N | – | 178 | Activity (Rattus norvegicus [4]): 3%
N#Cc1ccc(Br)c(C#N)c1 | – | 178 | Activity (Rattus norvegicus [4]): 3%
N#Cc1ccc(F)c(C#N)c1 | – | 178 | Activity (Rattus norvegicus [5]): 25%
N#Cc1cc(C#N)c(Cl)cc1Cl | – | 178 | Activity (Rattus norvegicus [5]): 5%
N#Cc1c(Cl)c(C#N)c(Nc2cccc(Cl)c2)c(C#N)c1Cl | – | 178 | Activity (Rattus norvegicus [6]): 0%
N#Cc1c(Cl)c(C#N)c(Nc2ccc(Cl)cc2)c(C#N)c1Cl | – | 178 | Activity (Rattus norvegicus [5]): 1%
N#Cc1c(Cl)c(C#N)c(Nc2ccccc2O)c(C#N)c1Cl | – | 24 | Activity (Rattus norvegicus [7]): 17%
Cc1c(Cl)cccc1Nc1c(C#N)c(Cl)c(C#N)c(Cl)c1C#N | – | 42 | Activity (Rattus norvegicus [8]): 8%
N#Cc1c(Cl)c(C#N)c(Nc2cccc(F)c2)c(C#N)c1Cl | – | 56 | Activity (Rattus norvegicus [6]): 0%
N#Cc1c(Cl)c(C#N)c(Nc2ccc(F)cc2F)c(C#N)c1Cl | – | 56 | Activity (Rattus norvegicus [6]): 12%
COc1ccc(Nc2c(C#N)c(Cl)c(C#N)c(Cl)c2C#N)cc1OC | – | 178 | Activity (Rattus norvegicus [5]): 13%
Cc1cccc(Nc2c(C#N)c(Cl)c(C#N)c(Cl)c2C#N)c1C | – | 75 | Activity (Rattus norvegicus [3]): 22%
Cc1ccc(Nc2c(C#N)c(Cl)c(C#N)c(Cl)c2C#N)c(C)c1 | – | 56 | Activity (Rattus norvegicus [6]): 13%
N#Cc1c(Cl)c(C#N)c(Cl)c(C#N)c1Cl | – | 24 | Activity (Rattus norvegicus [9]): 0%
Cc1c(C#N)c(C)c(C#N)c(C)c1C#N | – | 40 | Activity (Rattus norvegicus [3]): 57%
CCCCCCS(=O)(=O)c1c(Cl)c(Cl)c(C#N)c(Cl)c1Cl | – | 178 | Activity (Rattus norvegicus [5]): 2%

SMILES | Activity (Rattus norvegicus [1]) [%] | LD50 [2] [mg/kg] | also measured
N#CCCS(=O)(=O)c1c(Cl)c(Cl)c(C#N)c(Cl)c1Cl | – | 56 | Activity (Rattus norvegicus [6]): 5%
N#Cc1c(Cl)c(Cl)c(S(=O)(=O)CCCl)c(Cl)c1Cl | 0 | > 300 | –
N#Cc1c(Cl)c(Cl)c(S(=O)(=O)CCCCCl)c(Cl)c1Cl | 15 | > 300 | –
CCOCCS(=O)(=O)c1c(Cl)c(Cl)c(C#N)c(Cl)c1Cl | 23 | 237 | –
N#Cc1c(Cl)c(Cl)c(S(=O)(=O)CCCc2ccccc2)c(Cl)c1Cl | 18 | 300 | –
N#Cc1ccc(Br)cc1 | – | 237 | Activity (Rattus norvegicus [5]): 75%
N#Cc1ccccc1Cl | 26 | > 300 | –
N#Cc1ccccc1Br | 19 | > 300 | –
N#Cc1ccc(F)cc1 | 17 | > 300 | –
Cc1ccc(C#N)cc1C | 25 | > 300 | –
CNc1c(F)c(C#N)c(F)c(F)c1C#N | – | 56 | Activity (Rattus norvegicus [6]): 17%
CCNc1c(F)c(C#N)c(F)c(F)c1C#N | 19 | 237 | –
CCCCNc1c(F)c(C#N)c(F)c(F)c1C#N | 14 | > 300 | –
CCCCCCNc1c(F)c(C#N)c(F)c(F)c1C#N | 11 | > 300 | –
CCN(CC)c1c(F)c(C#N)c(F)c(F)c1C#N | 0 | > 300 | –
CCCN(CCC)c1c(F)c(C#N)c(F)c(F)c1C#N | 22 | > 300 | –
N#Cc1c(F)c(F)c(C#N)c(Nc2ccc(O)cc2)c1F | 10 | > 300 | –
N#Cc1c(Cl)c(Cl)c(C#N)c(Cl)c1Cl | 13 | > 300 | –
N#Cc1c(F)c(F)c(C#N)c(F)c1F | – | 56 | Activity (Rattus norvegicus [3]): 54%
N#Cc1ccc(C#N)cc1 | 27 | > 300 | –
N#Cc1ccc(C#N)c(Cl)c1 | 46 | > 300 | –
N#Cc1ccc(C#N)c(F)c1 | 49 | > 300 | –
N#Cc1cc(Cl)c(C#N)cc1Cl | 22 | > 300 | –
N#Cc1cc(F)c(C#N)cc1F | 32 | 56 | –
N#Cc1cc(Cl)c(C#N)cc1F | 22 | > 300 | –
N#Cc1c(F)c(F)c(C#N)c(Cl)c1F | – | 40 | Activity (Rattus norvegicus [6]): 86%
CCCCC1C(=O)N(c2ccccc2)N(c2ccccc2)C1=O [PHENYLBUTAZONE] | – | > 300 | Activity (Rattus norvegicus [4]): 43.8%
